Blank lines part the entries; values can stand above or below the molecule they belong to.
Columns and labels:
Format in all cases: in vivo, mouse
[1] = test system: 3MR or INK-ATTAC mice exposed to cigarette smoke; assay: Cigarette smoke induced COPD model, oxygen saturation by pulse oximeter; conditions: after two months of cigarette smoke exposure, compared with untreated controls; FIG. 6
Protocol: As a model for chronic obstructive pulmonary disease (COPD), mice were exposed to cigarette smoke. The effect of a senolytic agent on the mice exposed to smoke is assessed by senescent cell clearance, lung function, and histopathology.
The mice used in this study include the 3MR strain, described in US 2017/0027139 A1 and in Demaria et al., Dev Cell. 2014 Dec. 22; 31 (6): 722-733. The 3MR mouse has a transgene encoding thymidine kinase that converts the prodrug gancyclovir (GCV) to a compound that is lethal to cells. The enzyme in the transgene is placed under control of the p16 promoter, which causes it to be specifically expressed in senescent cells. Treatment of the mice with GCV eliminates senescent cells.
Other mice used in this study include the INK-ATTAC strain, described in US 2015/0296755 A1 and in Baker et al., Nature 2011 Nov. 2; 479 (7372):232-236. The INK-ATTAC mouse has a transgene encoding switchable caspase 8 under control of the p16 promoter. The caspase 8 can be activated by treating the mice with the switch compound AP20187, whereupon the caspase 8 directly induces apoptosis in senescent cells, eliminating them from the mouse.
To conduct the experiment, six-week-old 3MR (n=35) or INK-ATTAC (n=35) mice were chronically exposed to cigarette smoke generated from a Teague TE-10 system, an automatically-controlled cigarette smoking machine that produces a combination of side-stream and mainstream cigarette smoke in a chamber, which is transported to a collecting and mixing chamber where varying amounts of air is mixed with the smoke mixture. The COPD protocol was adapted from the COPD core facility at Johns Hopkins University (Rangasamy et al., 2004, J. Clin. Invest. 114:1248-1259; Yao et al., 2012, J. Clin. Invest. 122:2032-2045).
Mice received a total of 6 hours of cigarette smoke exposure per day, 5 days a week for 6 months. Each lighted cigarette (3R4F research cigarettes containing 10.9 mg of total particulate matter (TPM), 9.4 mg of tar, and 0.726 mg of nicotine, and 11.9 mg carbon monoxide per cigarette [University of Kentucky, Lexington, Ky.]) was puffed for 2 seconds and once every minute for a total of 8 puffs, with the flow rate of 1.05 L/min, to provide a standard puff of 35 cm^3. […] The smoke chamber atmosphere was monitored for total suspended particulates (80-120 mg/m3) and carbon monoxide (350 ppm). […]
After two months of cigarette smoke (CS) exposure, lung function was assessed by monitoring oxygen saturation using the MouseSTAT PhysioSuite™ pulse oximeter (Kent Scientific). […] Mice were monitored for 30 seconds and the average peripheral capillary oxygen saturation (SpO2) measurement over this duration was calculated.

[2] = test system: LDLR-/- mice fed a high fat diet; assay: Atherosclerosis model: LDLR-/- mice on high fat diet, systemic treatment
Protocol: This example illustrates the testing of an MDM2 inhibitor in a mouse model for treatment of atherosclerosis. The test compounds are administered systemically rather than locally. The model is done in an LDLR−/− strain of mice, which are deficient in the receptor for low-density lipoprotein. The experiments described here can be adapted mutatis mutandis to test and develop other types of inhibitors for use in clinical therapy.
Two groups of LDLR−/− mice (10 weeks) are fed a high fat diet (HFD) (Harlan Teklad TD.88137) having 42% calories from fat, beginning at Week 0 and throughout the study. Two groups of LDLR−/− mice (10 weeks) are fed normal chow (−HFD). From weeks 0-2, one group of HFD mice and −HFD mice are treated with Nutlin-3A (25 mg/kg, intraperitoneally). One treatment cycle is 14 days treatment, 14 days off. Vehicle is administered to one group of HFD mice and one group of −HFD mice. At week 4 (timepoint 1), one group of mice are sacrificed and to assess presence of senescent cells in the plaques. For the some of the remaining mice, Nutlin-3A and vehicle administration is repeated from weeks 4-6. At week 8 (timepoint 2), the mice are sacrificed and to assess presence of senescent cells in the plaques. The remaining mice are treated with Nutlin-3A or vehicle from weeks 8-10. At week 12 (timepoint 3), the mice are sacrificed and to assess the level of plaque and the number of senescent cells in the plaques.
Plasma lipid levels were measured in LDLR−/− mice fed a HFD and treated with Nutlin-3A or vehicle at timepoint 1 as compared with mice fed a −HFD (n=3 per group). Plasma was collected mid-afternoon and analyzed for circulating lipids and lipoproteins.
At the end of timepoint 1, LDLR−/− mice fed a HFD and treated with Nutlin-3A or vehicle were sacrificed (n=3, all groups), and the aortic arches were dissected for RT-PCR analysis of SASP factors and senescent cell markers. Values were normalized to GAPDH and expressed as fold-change versus age-matched, vehicle-treated LDLR−/− mice on a normal diet.
At the end of timepoint 2, LDLR−/− mice fed a HFD and treated with Nutlin-3A or vehicle (n=3 for all groups) were sacrificed, and aortic arches were dissected for RT-PCR analysis of SASP factors and senescent cell markers. Values were normalized to GAPDH and expressed as fold-change versus age-matched, vehicle-treated LDLR−/− mice on a normal diet.
At the end of timepoint 3, LDLR−/− mice fed a HFD and treated with Nutlin-3A or vehicle (n=3 for all groups) were sacrificed, and aortas were dissected and stained with Sudan IV to detect the presence of lipid. Body composition of the mice was analyzed by MRI, and circulating blood cells were counted by Hemavet™.

[3] = test system: C57BL/6J mice, osteoarthritis induced by ACL surgery; assay: Osteoarthritis model: anterior cruciate ligament surgery, intra-articular treatment
Protocol: The model was implemented as follows. C57BL/6J mice underwent surgery to cut the anterior cruciate ligament of one rear limb to induce osteoarthritis in the joint of that limb. During week 3 and week 4 post-surgery, the mice were treated with 5.8 μg of Nutlin-3A (n=7) per operated knee by intra-articular injection, q.o.d. for 2 weeks. At the end of 4 weeks post-surgery, joints of the mice were monitored for presence of senescent cells, assessed for function, monitored for markers of inflammation, and underwent histological assessment.
Two control groups of mice were included in the studies performed: one group comprising C57BL/6J or 3MR mice that had undergone a sham surgery (n=3) (i.e., surgical procedures followed except for cutting the ACL) and intra-articular injections of vehicle parallel to the GCV (gancyclovir) treated group; and one group comprising C57BL/6J or 3MR mice that had undergone an ACL surgery and received intra-articular injections of vehicle (n=5) parallel to the GCV-treated group. RNA from the operated joints of mice from the Nutlin-3A treated mice was analyzed for expression of SASP factors (mmp3, IL-6) and senescence markers (p16). qRT-PCR was performed to detect mRNA levels.
Function of the limbs was assessed 4 weeks post-surgery by a weight bearing test to determine which leg the mice favored. The mice were allowed to acclimate to the chamber on at least three occasions prior to taking measurements. Mice were maneuvered inside the chamber to stand with one hind paw on each scale. The weight that was placed on each hind limb was measured over a three second period. At least three separate measurements were made for each animal at each time point. The results were expressed as the percentage of the weight placed on the operated limb versus the contralateral unoperated limb.

SMILES: CC1(C)CCC(c2ccc(Cl)cc2)=C(CN2CCN(c3ccc(C(=O)NS(=O)(=O)c4ccc(N[C@H](CCN5CCOCC5)CSc5ccccc5)c(S(=O)(=O)C(F)(F)F)c4)cc3)CC2)C1 [ABT-263, Navitoclax]
SpO2 levels (peripheral capillary oxygen saturation) [1]: statistically significant increases

SMILES: CC[C@H](C(=O)N1CCCC[C@H]1C(=O)O[C@H](CCc1ccc(OC)c(OC)c1)c1cccc(OCC(=O)NCC(CNC(=O)COc2cccc([C@@H](CCc3ccc(OC)c(OC)c3)OC(=O)[C@@H]3CCCCN3C(=O)[C@@H](CC)c3cc(OC)c(OC)c(OC)c3)c2)CN(C)C)c1)c1cc(OC)c(OC)c(OC)c1 [AP2018]
SpO2 levels (peripheral capillary oxygen saturation) [1]: statistically significant increases

platelet and lymphocyte counts versus vehicle treated mice ([2]; timepoint 3 (week 12), Hemavet): equivalent
SMILES: COc1ccc(C2=N[C@@H](c3ccc(Cl)cc3)[C@@H](c3ccc(Cl)cc3)N2C(=O)N2CCNC(=O)C2)c(OC(C)C)c1 [Nutlin-3A]
SpO2 levels (peripheral capillary oxygen saturation) [1]: statistically significant increases | expression of SASP factors and senescent cell markers in aortic arch (RT-PCR): MMP3, MMP13, PAI1, p21, IGFBP2, IL-1A, IL-1B ([2]; 25 mg/kg intraperitoneally, timepoint 1 (week 4), after one treatment cycle): reduced expression of several SASP factors and senescent cell markers | expression of SASP factors and senescent cell markers in aortic arch (RT-PCR) ([2]; 25 mg/kg intraperitoneally, timepoint 2 (week 8), multiple treatment cycles): reduced expression of most markers | reduction of surface area covered by plaques in the descending aorta ([2]; 25 mg/kg intraperitoneally, timepoint 3 (week 12), Sudan IV staining, FIG. 7): about 45% | mass and body fat composition ([2]; timepoint 3 (week 12), MRI, mice fed the high fat diet): decreased mass and body fat composition | expression of p16 in the joint tissue (qRT-PCR) ([3]; 5.8 μg per operated knee intra-articular q.o.d. for 2 weeks, 4 weeks post-surgery, FIG. 3A): reduced the expression back to below the level of the controls | expression of IL-6 in the joint tissue (qRT-PCR) ([3]; 5.8 μg per operated knee intra-articular q.o.d. for 2 weeks, 4 weeks post-surgery, FIG. 3B): reduced the expression back to below the level of the controls | expression of MMP13 in the joint tissue (qRT-PCR) ([3]; 5.8 μg per operated knee intra-articular q.o.d. for 2 weeks, 4 weeks post-surgery, FIG. 3C): reduced the expression back to below the level of the controls | weight bearing test: favoring of the unoperated hind limb over the operated hind limb ([3]; 4 weeks post-surgery, FIG. 4A): abrogated this effect | histopathology: destruction of the proteoglycan layer of the joint ([3]; FIGS. 4B-4D): completely abrogated this effect

SMILES: Nc1nc(O)c2ncn(COC(CO)CO)c2n1 [ganciclovir]
SpO2 levels (peripheral capillary oxygen saturation) [1]: statistically significant increases

Reference: US20200360386A1, “Inhibitors of HSP90, PI3-Kinase, Proteasome, HDAC, and P97 Pathways for Selective Removal of Senescent Cells in the Treatment of Age Related Conditions” (Unity Biotechnology, Inc., priority 2017, published 2020)
